Test results published in ChEMBL document CHEMBL5678816, “A Next-Generation TRK Kinase Inhibitor Overcomes Acquired Resistance to Prior TRK Kinase Inhibition in Patients with TRK Fusion-Positive Solid Tumors” (Cancer Discov, 2017).
Calls of active or inactive are those of the source. No cut-off for these calls is given here.

Assays:
[1] = target: Serine/threonine-protein kinase TAO1 (Homo sapiens) (UniProt Q7L7X3); assay: Inhibition of TAO1 (unknown origin) at 1 uM in presence of ATP relative to control; values are per cent of control
[2] = system: CML-T1; assay: Inhibition of cell proliferation in human CML-T1 cells upto 10 umol/L incubated for 72 hrs by DAPI staining based analysis; assay type: functional; conditions: dose <= 10.0 µmol/L
[3] = target: Serine/threonine-protein kinase TAO2 (Homo sapiens) (UniProt Q9UL54); assay: Inhibition of TAO2 (unknown origin) at 1 uM in presence of ATP relative to control; values are per cent of control
[4] = target: Serine/threonine-protein kinase PLK2 (Homo sapiens) (UniProt Q9NYY3); assay: Inhibition of Plk2 (unknown origin) at 1 uM in presence of ATP relative to control; values are per cent of control
[5] = target: Serine/threonine-protein kinase pim-1 (Homo sapiens) (UniProt P11309); assay: Inhibition of Pim-1 (unknown origin) at 1 uM in presence of ATP relative to control; values are per cent of control
Sequence of Serine/threonine-protein kinase pim-1 (Homo sapiens) (P11309 whole entry, looked up): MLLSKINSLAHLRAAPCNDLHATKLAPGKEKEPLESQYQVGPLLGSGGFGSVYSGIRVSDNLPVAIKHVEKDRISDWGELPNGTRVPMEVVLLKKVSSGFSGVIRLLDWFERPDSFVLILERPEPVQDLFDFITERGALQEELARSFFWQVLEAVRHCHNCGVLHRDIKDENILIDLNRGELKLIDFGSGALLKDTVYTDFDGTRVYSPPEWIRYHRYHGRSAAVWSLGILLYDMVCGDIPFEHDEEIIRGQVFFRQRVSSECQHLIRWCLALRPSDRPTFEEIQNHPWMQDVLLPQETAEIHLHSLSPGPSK

[6] = target: Serine/threonine-protein kinase 4 (Homo sapiens) (UniProt Q13043); assay: Inhibition of MST1 (unknown origin) at 1 uM in presence of ATP relative to control; values are per cent of control
Sequence of Serine/threonine-protein kinase 4 (Homo sapiens) (Q13043 whole entry, looked up): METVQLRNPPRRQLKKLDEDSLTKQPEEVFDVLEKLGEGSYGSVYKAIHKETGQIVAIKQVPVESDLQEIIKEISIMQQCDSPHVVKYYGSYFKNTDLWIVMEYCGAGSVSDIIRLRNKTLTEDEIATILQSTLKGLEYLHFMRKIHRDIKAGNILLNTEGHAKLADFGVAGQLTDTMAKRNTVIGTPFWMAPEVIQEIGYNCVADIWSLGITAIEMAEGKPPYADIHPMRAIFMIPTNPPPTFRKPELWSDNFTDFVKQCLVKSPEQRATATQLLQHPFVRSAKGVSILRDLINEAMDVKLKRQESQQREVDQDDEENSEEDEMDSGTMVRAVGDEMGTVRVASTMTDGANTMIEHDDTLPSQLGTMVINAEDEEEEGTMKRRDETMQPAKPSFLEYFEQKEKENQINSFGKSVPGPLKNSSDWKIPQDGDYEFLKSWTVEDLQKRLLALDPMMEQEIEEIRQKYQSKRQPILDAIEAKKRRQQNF

[7] = target: Serine/threonine-protein kinase pim-3 (Homo sapiens) (UniProt Q86V86); assay: Inhibition of Pim-3 (unknown origin) at 1 uM in presence of ATP relative to control; values are per cent of control
[8] = target: Serine/threonine-protein kinase BRSK2 (Homo sapiens) (UniProt Q8IWQ3); assay: Inhibition of BrSK2 (unknown origin) at 1 uM in presence of ATP relative to control; values are per cent of control
Sequence of Serine/threonine-protein kinase BRSK2 (Homo sapiens) (Q8IWQ3 whole entry): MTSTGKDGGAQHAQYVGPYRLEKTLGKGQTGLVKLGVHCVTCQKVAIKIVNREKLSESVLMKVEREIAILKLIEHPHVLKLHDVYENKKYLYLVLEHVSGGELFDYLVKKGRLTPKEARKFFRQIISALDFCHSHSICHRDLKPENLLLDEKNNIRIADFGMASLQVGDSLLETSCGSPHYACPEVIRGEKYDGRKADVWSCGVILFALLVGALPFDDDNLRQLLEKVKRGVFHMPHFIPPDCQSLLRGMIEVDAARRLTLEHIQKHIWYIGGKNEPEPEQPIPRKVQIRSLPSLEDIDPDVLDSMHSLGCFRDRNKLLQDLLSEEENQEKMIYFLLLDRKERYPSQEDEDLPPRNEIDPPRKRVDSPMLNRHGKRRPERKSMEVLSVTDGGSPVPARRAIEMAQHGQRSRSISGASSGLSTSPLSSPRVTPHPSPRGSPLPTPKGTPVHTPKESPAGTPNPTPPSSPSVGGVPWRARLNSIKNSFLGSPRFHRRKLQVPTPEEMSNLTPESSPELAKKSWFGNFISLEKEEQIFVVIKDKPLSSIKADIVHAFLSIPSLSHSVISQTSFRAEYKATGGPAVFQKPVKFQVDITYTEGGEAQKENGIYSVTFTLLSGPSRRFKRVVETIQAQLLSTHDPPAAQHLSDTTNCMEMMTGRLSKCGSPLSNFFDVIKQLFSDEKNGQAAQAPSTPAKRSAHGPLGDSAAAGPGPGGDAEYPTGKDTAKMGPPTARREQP

[9] = Cmax in pediatric patient with recurrent ETV6-NTRK3-rearranged infantile fibrosarcoma at 100 mg administered twice a day as liquid formulation for 29 day by LC-MS/MS analysis; assay type: ADME; conditions: human, in vivo
[10] = target: Serine/threonine-protein kinase ULK2 (Homo sapiens) (UniProt Q8IYT8); assay: Inhibition of ULK2 (unknown origin) at 1 uM in presence of ATP relative to control; values are per cent of control
Sequence of Serine/threonine-protein kinase ULK2 (Homo sapiens) (Q8IYT8 whole entry): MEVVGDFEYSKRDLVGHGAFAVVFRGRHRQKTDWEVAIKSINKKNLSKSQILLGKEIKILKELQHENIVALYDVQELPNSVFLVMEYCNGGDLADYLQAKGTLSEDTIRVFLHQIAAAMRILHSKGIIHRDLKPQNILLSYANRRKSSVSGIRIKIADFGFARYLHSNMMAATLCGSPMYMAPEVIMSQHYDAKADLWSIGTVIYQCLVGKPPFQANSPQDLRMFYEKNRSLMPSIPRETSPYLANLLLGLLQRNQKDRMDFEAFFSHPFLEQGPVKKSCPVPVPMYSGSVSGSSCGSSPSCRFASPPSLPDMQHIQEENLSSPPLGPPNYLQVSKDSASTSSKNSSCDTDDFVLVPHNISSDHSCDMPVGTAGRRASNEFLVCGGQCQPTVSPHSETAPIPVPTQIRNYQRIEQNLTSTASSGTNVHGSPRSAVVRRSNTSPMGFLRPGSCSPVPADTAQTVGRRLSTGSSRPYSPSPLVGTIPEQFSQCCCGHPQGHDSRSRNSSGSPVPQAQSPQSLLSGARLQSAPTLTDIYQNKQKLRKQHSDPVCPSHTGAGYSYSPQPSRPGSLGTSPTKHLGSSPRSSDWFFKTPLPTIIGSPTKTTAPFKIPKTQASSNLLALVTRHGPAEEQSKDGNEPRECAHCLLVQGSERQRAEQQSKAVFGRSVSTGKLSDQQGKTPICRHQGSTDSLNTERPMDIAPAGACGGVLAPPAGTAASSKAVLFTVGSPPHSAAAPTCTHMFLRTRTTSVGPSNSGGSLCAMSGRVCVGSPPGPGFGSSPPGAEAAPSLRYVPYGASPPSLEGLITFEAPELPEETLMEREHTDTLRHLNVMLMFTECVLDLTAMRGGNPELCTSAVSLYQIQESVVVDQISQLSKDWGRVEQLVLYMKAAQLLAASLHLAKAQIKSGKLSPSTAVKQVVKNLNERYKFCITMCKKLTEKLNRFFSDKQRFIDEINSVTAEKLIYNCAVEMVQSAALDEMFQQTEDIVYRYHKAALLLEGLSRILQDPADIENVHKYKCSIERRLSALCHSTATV

[11] = target: Activin receptor type-1B (Homo sapiens) (UniProt P36896); assay: Inhibition of ALK4 (unknown origin) at 1 uM in presence of ATP relative to control; values are per cent of control
Sequence of Activin receptor type-1B (Homo sapiens) (P36896 whole entry): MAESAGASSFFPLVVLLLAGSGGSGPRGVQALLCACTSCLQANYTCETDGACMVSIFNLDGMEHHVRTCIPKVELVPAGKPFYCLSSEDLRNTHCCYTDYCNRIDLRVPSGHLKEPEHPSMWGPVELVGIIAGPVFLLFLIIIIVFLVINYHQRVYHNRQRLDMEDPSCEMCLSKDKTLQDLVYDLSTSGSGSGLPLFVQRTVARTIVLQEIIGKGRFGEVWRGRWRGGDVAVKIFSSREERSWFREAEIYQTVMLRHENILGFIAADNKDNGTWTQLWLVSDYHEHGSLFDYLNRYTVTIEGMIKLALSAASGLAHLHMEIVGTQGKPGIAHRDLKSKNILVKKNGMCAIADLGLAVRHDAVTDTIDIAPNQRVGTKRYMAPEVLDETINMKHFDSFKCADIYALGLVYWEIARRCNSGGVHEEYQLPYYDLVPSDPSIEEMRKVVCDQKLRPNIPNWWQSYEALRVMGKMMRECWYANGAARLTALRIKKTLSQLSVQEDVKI

[12] = target: [Pyruvate dehydrogenase (acetyl-transferring)] kinase isozyme 1, mitochondrial (Homo sapiens) (UniProt Q15118); assay: Inhibition of PDK1 (unknown origin) at 1 uM in presence of ATP relative to control; values are per cent of control
[13] = system: CGTH-W-1; assay: Inhibition of cell proliferation in human CGTH-W-1 cells upto 10 umol/L incubated for 72 hrs by DAPI staining based analysis; assay type: functional; conditions: dose <= 10.0 µmol/L
[14] = target: Serine/threonine-protein kinase STK11 (Homo sapiens) (UniProt Q15831); assay: Inhibition of LKB1 (unknown origin) at 1 uM in presence of ATP relative to control; values are per cent of control
[15] = target: Tyrosine-protein kinase Lck (Homo sapiens) (UniProt P06239); assay: Inhibition of Lck (unknown origin) at 1 uM in presence of ATP relative to control; values are per cent of control
Sequence of Tyrosine-protein kinase Lck (Homo sapiens) (P06239 2-509 limits assumed): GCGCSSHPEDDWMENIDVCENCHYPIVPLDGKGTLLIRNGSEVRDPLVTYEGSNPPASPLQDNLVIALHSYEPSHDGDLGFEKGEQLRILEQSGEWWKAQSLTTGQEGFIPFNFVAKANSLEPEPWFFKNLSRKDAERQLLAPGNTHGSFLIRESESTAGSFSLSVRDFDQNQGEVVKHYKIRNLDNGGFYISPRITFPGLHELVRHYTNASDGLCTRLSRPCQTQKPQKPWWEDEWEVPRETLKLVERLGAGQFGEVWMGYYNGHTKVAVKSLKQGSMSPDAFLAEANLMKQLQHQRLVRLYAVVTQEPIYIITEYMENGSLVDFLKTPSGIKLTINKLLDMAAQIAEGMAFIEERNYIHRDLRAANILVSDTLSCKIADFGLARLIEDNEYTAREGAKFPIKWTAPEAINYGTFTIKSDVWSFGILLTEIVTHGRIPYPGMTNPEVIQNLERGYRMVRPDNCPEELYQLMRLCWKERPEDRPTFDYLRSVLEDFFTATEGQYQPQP

[16] = target: Ephrin type-B receptor 2 (Homo sapiens) (UniProt P29323); assay: Inhibition of EphB2 (unknown origin) at 1 uM in presence of ATP relative to control; values are per cent of control
[17] = target: Protein kinase C eta type (Homo sapiens) (UniProt P24723); assay: Inhibition of PKCeta (unknown origin) at 1 uM in presence of ATP relative to control; values are per cent of control
[18] = target: TAK1/TAB1 (Homo sapiens) (UniProt Q15750+O43318); assay: Inhibition of TAK1-TAB1 (unknown origin) at 1 uM in presence of ATP relative to control; values are per cent of control
[19] = system: DU-145; assay: Inhibition of cell proliferation in human DU-145 cells upto 10 umol/L incubated for 72 hrs by DAPI staining based analysis; assay type: functional; conditions: dose <= 10.0 µmol/L
[20] = species: Homo sapiens; assay: Inhibition of TEC Activated (unknown origin) at 1 uM in presence of ATP relative to control; values are per cent of control
[21] = target: Serine/threonine-protein kinase 10 (Homo sapiens) (UniProt O94804); assay: Inhibition of LOK (unknown origin) at 1 uM in presence of ATP relative to control; values are per cent of control
[22] = target: Serine/threonine-protein kinase N2 (Homo sapiens) (UniProt Q16513); assay: Inhibition of PRK2 (unknown origin) at 1 uM in presence of ATP relative to control; values are per cent of control
[23] = target: Testis-specific serine/threonine-protein kinase 1 (Homo sapiens) (UniProt Q9BXA7); assay: Inhibition of TSSK1 (unknown origin) at 1 uM in presence of ATP relative to control; values are per cent of control
[24] = target: Serine/threonine-protein kinase haspin (Homo sapiens) (UniProt Q8TF76); assay: Inhibition of Haspin (unknown origin) at 1 uM in presence of ATP relative to control; values are per cent of control
Sequence of Serine/threonine-protein kinase haspin (Homo sapiens) (Q8TF76 whole entry): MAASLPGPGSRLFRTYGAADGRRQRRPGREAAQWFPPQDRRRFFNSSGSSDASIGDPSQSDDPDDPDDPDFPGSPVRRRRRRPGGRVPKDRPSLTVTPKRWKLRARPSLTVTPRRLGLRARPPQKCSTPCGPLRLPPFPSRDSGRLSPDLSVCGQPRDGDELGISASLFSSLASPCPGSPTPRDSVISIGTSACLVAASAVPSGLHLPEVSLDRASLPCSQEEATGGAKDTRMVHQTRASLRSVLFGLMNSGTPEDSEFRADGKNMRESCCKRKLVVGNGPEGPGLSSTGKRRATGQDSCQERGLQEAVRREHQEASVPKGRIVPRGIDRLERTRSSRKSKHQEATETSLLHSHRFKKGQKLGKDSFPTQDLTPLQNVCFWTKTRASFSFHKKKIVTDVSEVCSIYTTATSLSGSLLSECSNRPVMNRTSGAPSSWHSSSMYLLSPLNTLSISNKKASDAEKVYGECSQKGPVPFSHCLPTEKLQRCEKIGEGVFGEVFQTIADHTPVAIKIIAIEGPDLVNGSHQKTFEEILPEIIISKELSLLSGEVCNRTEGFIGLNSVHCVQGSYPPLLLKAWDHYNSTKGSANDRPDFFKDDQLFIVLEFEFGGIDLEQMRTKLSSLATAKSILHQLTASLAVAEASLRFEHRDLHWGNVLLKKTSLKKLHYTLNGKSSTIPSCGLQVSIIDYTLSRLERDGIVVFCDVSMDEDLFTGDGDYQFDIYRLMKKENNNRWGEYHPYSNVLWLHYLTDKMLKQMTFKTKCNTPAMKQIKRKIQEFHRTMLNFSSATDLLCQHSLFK

[25] = target: Cyclin-dependent kinase 5/CDK5 activator 1 (Homo sapiens) (UniProt Q00535+Q15078); assay: Inhibition of CDK5/p25 (unknown origin) at 1 uM in presence of ATP relative to control; values are per cent of control
Sequence of Cyclin-dependent kinase 5/CDK5 activator 1 (Homo sapiens) (Q00535 whole entry): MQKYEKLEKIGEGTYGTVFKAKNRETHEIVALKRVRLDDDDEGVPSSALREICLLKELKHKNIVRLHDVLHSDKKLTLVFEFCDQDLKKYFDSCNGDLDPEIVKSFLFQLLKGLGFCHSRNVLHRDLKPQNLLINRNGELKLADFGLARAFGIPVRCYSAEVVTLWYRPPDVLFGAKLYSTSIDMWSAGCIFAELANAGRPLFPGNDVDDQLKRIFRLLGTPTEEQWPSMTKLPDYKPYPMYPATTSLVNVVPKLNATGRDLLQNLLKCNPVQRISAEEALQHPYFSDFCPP
Sequence of Cyclin-dependent kinase 5/CDK5 activator 1 (Homo sapiens) (Q15078 99-307 partner limits assumed): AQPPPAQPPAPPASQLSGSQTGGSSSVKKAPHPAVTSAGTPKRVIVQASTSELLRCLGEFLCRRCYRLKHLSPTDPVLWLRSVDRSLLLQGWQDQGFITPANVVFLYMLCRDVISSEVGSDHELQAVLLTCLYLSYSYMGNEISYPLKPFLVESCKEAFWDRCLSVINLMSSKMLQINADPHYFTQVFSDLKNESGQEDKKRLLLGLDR

[26] = target: Ephrin type-A receptor 3 (Homo sapiens) (UniProt P29320); assay: Inhibition of EphA3 (unknown origin) at 1 uM in presence of ATP relative to control; values are per cent of control
[27] = target: Testis-specific serine/threonine-protein kinase 2 (Homo sapiens) (UniProt Q96PF2); assay: Inhibition of TSSK2 (unknown origin) at 1 uM in presence of ATP relative to control; values are per cent of control

- residual activity [1]: 102%
- residual activity [3]: 104%
- residual activity [4]: 95%
- residual activity [5]: 122%
- residual activity [6]: 95.5%
- residual activity [7]: 103%
- residual activity [8]: 124%
- Cmax [9]: 776 ng/mL
- residual activity [10]: 96%
- residual activity [11]: 96%
- residual activity [12]: 101%
- residual activity [14]: 108%
- residual activity [15]: 92.5%
- residual activity [16]: 81%
- residual activity [17]: 108%
- residual activity [18]: 100%
- residual activity [20]: 112%
- residual activity [21]: 99.5%
- residual activity [22]: 100%
- residual activity [23]: 99%
- residual activity [24]: 110%
- residual activity [25]: 98.5%
- residual activity [26]: 104%
- residual activity [27]: 120%
Compound: C[C@@H]1CCc2ncc(F)cc2[C@H]2CCCN2c2ccn3ncc(c3n2)C(=O)N1 [SELITRECTINIB]
- inhibition [2]: inactive
- inhibition [13]: inactive
- inhibition [19]: inactive
